Results from US20120088753A1, “PYRROLOPYRIMIDINES AND USED AS KINASE INHIBITORS” (MEDICAL RESEARCH COUNCIL TECHNOLOGY, priority 2009, published 2012).

molecular target: T1, TBK1 (Homo sapiens, UniProt Q9UHD2); assay: TBK1 protein kinase assay ([γ-33P]ATP filter-plate, IC50 from 10 concentrations); type: biochemical; conditions: 50 μM ATP, peptide substrate 300 μM, 30 min, 21° C.; read-out: Potency score (TBK1 IC50)
T1 construct: All protein kinases were of human origin and encoded full length proteins, unless indicated otherwise; His6; made in house; host or cells: insect Sf21 cells
T1 sequence (Q9UHD2 1-729): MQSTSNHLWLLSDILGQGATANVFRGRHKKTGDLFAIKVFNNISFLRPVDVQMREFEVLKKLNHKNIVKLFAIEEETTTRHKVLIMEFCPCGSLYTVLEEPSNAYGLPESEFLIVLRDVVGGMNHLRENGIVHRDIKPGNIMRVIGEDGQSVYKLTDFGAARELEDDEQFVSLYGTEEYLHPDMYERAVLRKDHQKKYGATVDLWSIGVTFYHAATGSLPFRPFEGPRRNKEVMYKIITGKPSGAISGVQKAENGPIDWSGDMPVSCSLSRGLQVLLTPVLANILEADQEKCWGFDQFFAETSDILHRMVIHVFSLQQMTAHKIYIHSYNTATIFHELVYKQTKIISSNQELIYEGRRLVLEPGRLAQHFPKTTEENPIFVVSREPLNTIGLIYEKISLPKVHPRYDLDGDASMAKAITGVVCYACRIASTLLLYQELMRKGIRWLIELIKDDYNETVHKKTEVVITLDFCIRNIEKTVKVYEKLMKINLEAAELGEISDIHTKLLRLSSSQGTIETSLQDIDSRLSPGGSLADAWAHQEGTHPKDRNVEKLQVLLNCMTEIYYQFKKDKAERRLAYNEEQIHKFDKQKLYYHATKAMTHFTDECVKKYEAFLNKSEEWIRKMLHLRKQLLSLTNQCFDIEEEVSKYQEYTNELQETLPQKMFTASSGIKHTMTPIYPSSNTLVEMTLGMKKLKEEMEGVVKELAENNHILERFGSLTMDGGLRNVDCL
Source text: All protein kinases were of human origin and encoded full length proteins, unless indicated otherwise. They were either expressed as glutathione S-transferase (GST) fusion proteins in Escherichia Coli or as hexahistidine (His6)-tagged proteins in insect Sf21 cells. GST fusion proteins were purified by affinity chromatography on glutathione-Sepharose, and His6-tagged proteins on nickel/nitriloacetate-agarose. The procedures for expressing some of the protein kinases used herein have been detailed previously.^8,9 The following sections outline the DNA vectors synthesised and the procedures used to express and purifying protein kinases that have not been reported previously.
The following kinases were expressed in Sf21 cells: Aurora B and Aurora C, extra-cellular signal-regulated kinase 8 (ERK8), microtubule affinity regulating kinase 3 (MARK3), protein kinase Bα[118-480][S473D], protein kinase Bβ (PKBβ[120-481][S474D], 3-phosphoinositide-dependent protein kinase-1 [52-556] (PDK1[52-556], IKKε, TBK1,
All assays (25.5 μl) were carried out at room temperature (21° C.) and were linear with respect to time and enzyme concentration under the conditions used. Assays were performed for 30 min using Multidrop Micro reagent dispensers (Thermo Electron Corporation, Waltham, Mass. 02454, USA) in a 96-well format. The concentration of magnesium acetate in the assays was 10 mM and the [γ-33P] ATP (800 cpm/pmol) was used at 5, 20 or 50 μM as indicated, in order to be at or below the Km for ATP for each enzyme. Protein kinases assayed at 5 μM ATP were: ERK1, ERK8, PKBα, MARK3, Aurora C. Protein kinases assayed at 20 μM ATP were: JNK1, PDK1, CHK1, CHK2, CDK2 and Aurora B. Protein kinases assayed at 50 μM ATP were: MNK2, IKKepsilon and TBK1.
The assays were initiated with MgATP, stopped by addition of 5 μl of 0.5 M orthophosphoric acid and spotted on to P81 filterplates using a unifilter harvester (PerkinElmer, Boston, Mass. 02118, USA). The IC50 values of inhibitors were determined after carrying out assays at 10 different concentrations of each compound.
ERK1 and ERK8 were both assayed against myelin basic protein (MBP, 0.33 mg/ml). MARK3 was assayed against the peptide […] (300 μM), MNK2 against the eIF4E protein (0.5 mg/ml). PKBβ was assayed against the peptide GRPRTSSFAEGKK (30 μM). TBK1 were assayed against ([…]) (300 μM). The substrates used for other protein kinases were described previously.^8,9
Unless stated otherwise, enzymes were diluted in 50 mM Tris/HCl pH 7.5, 0.1 mM EGTA, 1 mg/ml BSA, 0.1% (v/v) 2-mercaptoethanol and assayed in 50 mM Tris/HCl pH 7.5, 0.1 mM EGTA, 0.1% (v/v) 2-mercaptoethanol.

| IC50 [nM] | Compound |
| --- | --- |
| < 100 | O=C(NCCCn1ccc2cnc(Nc3ccc(C(=O)N4CCOCC4)cc3)nc21)C1CCC1 [Example 15, Cyclobutanecarboxylic acid (3-{2-[4-(morpholine-4-carbonyl)-phenylamino]-pyrrolo[2,3-d]pyrimidin-7-yl}-propyl)-amide] |
| < 100 | CN1CCC(O)(c2ccc(Nc3ncc4ccn(CCCNC(=O)C5CCC5)c4n3)cc2)CC1 [Example 57, Cyclobutanecarboxylic acid (3-{2-[4-(4-hydroxy-1-methyl-piperidin-4-yl)-phenylamino]-pyrrolo[2,3-d]pyrimidin-7-yl}-propyl)amide] |
| 100 to 1000 | O=C(NCCCn1ccc2cnc(Nc3cccc(NC(=O)N4CCCC4)c3)nc21)c1cccs1 [Example 14, Pyrrolidine-1-carboxylic acid [3-(7-{3-[(thiophene-2-carbonyl)-amino]-propyl}-7H-pyrrolo[2,3-d]pyrimidin-2-ylamino)-phenyl]-amide] |
| 100 to 1000 | O=C(CC1CCCC1)NCCCn1ccc2cnc(Nc3ccc(N4CCOCC4)nc3)nc21 [Example 25, 2-Cyclopentyl-N-{3-[2-(6-morpholin-4-yl-pyridin-3-ylamino)-pyrrolo[2,3-d]pyrimidin-7-yl]-propyl}-acetamide] |
| < 100 | CC(C)N1CCC(n2cc(Nc3ncc4ccn(CCCNC(=O)C5CCC5)c4n3)cn2)CC1 [Example 51, Cyclobutanecarboxylic acid (3-{2-[1-(1-isopropyl-piperidin-4-yl)-1H-pyrazol-4-ylamino]-pyrrolo[2,3-d]pyrimidin-7-yl}-propyl)-amide] |
| < 100 | O=C(NCCCn1ccc2cnc(Nc3cccc(CN4CCOCC4)c3)nc21)C1CCC1 [Example 52, Cyclobutanecarboxylic acid {3-[2-(3-morpholin-4-ylmethyl-phenylamino)-pyrrolo[2,3-d]pyrimidin-7-yl]-propyl}-amide] |
| < 100 | CN(C)Cc1ccc(Nc2ncc3ccn(CCCNC(=O)C4CCC4)c3n2)cc1 [Example 5, Cyclobutanecarboxylic acid {3-[2-(4-dimethylaminomethyl-phenylamino)-pyrrolo[2,3-d]pyrimidin-7-yl]-propyl}-amide] |
| < 100 | O=C(NCCCn1ccc2cnc(Nc3cccc(-n4cncn4)c3)nc21)C1CCC1 [Example 41, Cyclobutanecarboxylic acid {3-[2-(3-1,2,4-triazol-1-yl-phenylamino)-pyrrolo[2,3-d]pyrimidin-7-yl]-propyl}-amide] |
| < 100 | O=C(NCCCn1ccc2cnc(Nc3ccc4nccnc4c3)nc21)C1CCC1 [Example 46, Cyclobutanecarboxylic acid {3-[2-(quinoxalin-6-ylamino)-pyrrolo[2,3-d]pyrimidin-7-yl]-propyl}-amide] |
| < 100 | O=C(NCCCn1cc(Br)c2cnc(Nc3cccc(F)c3)nc21)C1CCC1 [Example 36, Cyclobutanecarboxylic acid {3-[5-bromo-2-(3-fluoro-phenylamino)-pyrrolo[2,3-d]pyrimidin-7-yl]-propyl}-amide] |
| < 100 | O=C(NCCCn1ccc2cnc(Nc3ccc(N4CCOCC4)nc3)nc21)C1CCOC1 (stereo not drawn) [Example 20, Tetrahydro-furan-3-carboxylic acid {3-[2-(6-morpholin-4-yl-pyridin-3-ylamino)-pyrrolo[2,3-d]pyrimidin-7-yl]-propyl}-amide] |
| 100 to 1000 | O=C(NCCCn1ccc2cnc(Nc3cccc(N4CCCC4=O)c3)nc21)C1CCC1 [Example 29, Cyclobutanecarboxylic acid (3-{2-[3-(2-oxo-pyrrolidin-1-yl)-phenylamino]-pyrrolo[2,3-d]pyrimidin-7-yl}-propyl)-amide] |
| < 100 | O=C(NCCCn1ccc2cnc(Nc3ccc(N4CCCC4=O)cc3)nc21)C1CCC1 [Example 39, Cyclobutanecarboxylic acid (3-{2-[4-(2-oxo-pyrrolidin-1-yl)-phenylamino]-pyrrolo[2,3-d]pyrimidin-7-yl}-propyl)-amide] |
| < 100 | O=C(NCCCn1ccc2cnc(Nc3ccc(N4CCOCC4)nc3)nc21)C1CCCC1 [Example 16, Cyclopentanecarboxylic acid {3-[2-(6-morpholin-4-yl-pyridin-3-ylamino)-pyrrolo[2,3-d]pyrimidin-7-yl]-propyl}-amide] |
| 100 to 1000 | N#Cc1cn(CCCNC(=O)C2CCC2)c2nc(Nc3cccc(F)c3)ncc12 [Example 37, Cyclobutanecarboxylic acid {3-[5-cyano-2-(3-fluoro-phenylamino)-pyrrolo[2,3-d]pyrimidin-7-yl]-propyl}-amide] |
| 1000 to 10000 | O=C(NCCCn1ccc2cnc(Nc3cccc(C(F)(F)F)c3)nc21)c1cccs1 [Example 13, Thiophene-2-carboxylic acid {3-[2-(3-trifluoromethyl-phenylamino)-pyrrolo[2,3-d]pyrimidin-7-yl]-propyl}-amide] |
| < 100 | O=C(NCCCn1ccc2cnc(Nc3ccc(N4CCOCC4)nc3)nc21)C1CCC1 [Example 30, Cyclobutanecarboxylic acid {3-[2-(6-morpholin-4-yl-pyridin-3-ylamino)-pyrrolo[2,3-d]pyrimidin-7-yl]propyl}-amide] |
| < 100 | O=C(NCCCn1ccc2cnc(Nc3ccc4[nH]ncc4c3)nc21)C1CCC1 [Example 40, Cyclobutanecarboxylic acid {3-[2-(1H-indazol-5-ylamino)-pyrrolo[2,3-d]pyrimidin-7-yl]-propyl}-amide] |
| < 100 | O=C(NCCCn1ccc2cnc(Nc3cccnc3)nc21)C1CCC1 [Example 43, Cyclobutanecarboxylic acid {3-[2-(pyridin-3-ylamino)-pyrrolo[2,3-d]pyrimidin-7-yl]-propyl}-amide] |
| < 100 | Cn1ncc2ccc(Nc3ncc4ccn(CCCNC(=O)C5CCC5)c4n3)cc21 [Example 2, Cyclobutanecarboxylic acid {3-[2-(1-methyl-1H-indazol-6-ylamino)-pyrrolo[2,3-d]pyrimidin-7-yl]-propyl}-amide] |
| < 100 | CN1CCN(c2ccc(Nc3ncc4ccn(CCCNC(=O)C5CCC5)c4n3)cc2)CC1 [Example 4, Cyclobutanecarboxylic acid (3-{2-[4-(4-methyl-piperazin-1-yl)-phenylamino]-pyrrolo[2,3-d]pyrimidin-7-yl}-propyl)-amide] |
| < 100 | Cn1ncc2cc(Nc3ncc4ccn(CCCNC(=O)C5CCC5)c4n3)ccc21 [Example 1, Cyclobutanecarboxylic acid {3-[2-(1-methyl-1H-indazol-5-ylamino)-pyrrolo[2,3-d]pyrimidin-7-yl]propyl}-amide] |
| < 100 | O=C(NCCCn1cc(Cl)c2cnc(Nc3ccc(N4CCOCC4)nc3)nc21)C1CCC1 [Example 35, Cyclobutanecarboxylic acid {3-[5-chloro-2-(6-morpholin-4-yl-pyridin-3-ylamino)-pyrrolo[2,3-d]pyrimidin-7-yl]-propyl}-amide] |
| < 100 | CN1CCC(c2ccc(Nc3ncc4ccn(CCCNC(=O)C5CCC5)c4n3)cc2)CC1 [Example 56, Cyclobutanecarboxylic acid (3-{2-[4-(1-methyl-piperidin-4-yl)-phenylamino]-pyrrolo[2,3-d]pyrimidin-7-yl}-propyl]-amide] |
